# Measurements published in patent US6083940A, “Method and composition for effecting contraception in a mammalian male” (SRI International, priority 1998, dated 2000).
# “Also recorded” adds a separate entry of the source.
# Experiments:
# [1] = tested on: rat ventral prostate explant cultures (prostatein C3 mRNA); assay: Measurement of Prostatein C3 mRNA in rat ventral prostate explant culture
# From the text: Testosterone was used as a control. […] Addition of androgens to the medium of rat prostate explant cultures maintains the mRNA for C3 subunit of prostatein, and measurement of either prostatein or its C3 subunit mRNA serves as a sensitive, androgen-responsive marker for the explant system.
# [2] = target: T1, Rat Prostate Androgen Receptor (Rattus norvegicus, UniProt P15207); assay: Rat Prostate Androgen Receptor Competition Assay; type: binding; settings: for Relative Binding Affinity: 5α-DHT set at 100, conc. of 5αDHT at 50% binding inhibition/conc. competitor at 50% binding inhibition × 100; for Relative androgen receptor binding affinity: Table 3, repeats the values of Table 1; for affinity for the rat prostate androgen receptor compared with other known antiandrogens: in words
# T1 construct: from tissue; host or cells: prostate cytosol (100,000×g supernatant) of gonadectomized male rats
# T1 sequence (P15207 1-902): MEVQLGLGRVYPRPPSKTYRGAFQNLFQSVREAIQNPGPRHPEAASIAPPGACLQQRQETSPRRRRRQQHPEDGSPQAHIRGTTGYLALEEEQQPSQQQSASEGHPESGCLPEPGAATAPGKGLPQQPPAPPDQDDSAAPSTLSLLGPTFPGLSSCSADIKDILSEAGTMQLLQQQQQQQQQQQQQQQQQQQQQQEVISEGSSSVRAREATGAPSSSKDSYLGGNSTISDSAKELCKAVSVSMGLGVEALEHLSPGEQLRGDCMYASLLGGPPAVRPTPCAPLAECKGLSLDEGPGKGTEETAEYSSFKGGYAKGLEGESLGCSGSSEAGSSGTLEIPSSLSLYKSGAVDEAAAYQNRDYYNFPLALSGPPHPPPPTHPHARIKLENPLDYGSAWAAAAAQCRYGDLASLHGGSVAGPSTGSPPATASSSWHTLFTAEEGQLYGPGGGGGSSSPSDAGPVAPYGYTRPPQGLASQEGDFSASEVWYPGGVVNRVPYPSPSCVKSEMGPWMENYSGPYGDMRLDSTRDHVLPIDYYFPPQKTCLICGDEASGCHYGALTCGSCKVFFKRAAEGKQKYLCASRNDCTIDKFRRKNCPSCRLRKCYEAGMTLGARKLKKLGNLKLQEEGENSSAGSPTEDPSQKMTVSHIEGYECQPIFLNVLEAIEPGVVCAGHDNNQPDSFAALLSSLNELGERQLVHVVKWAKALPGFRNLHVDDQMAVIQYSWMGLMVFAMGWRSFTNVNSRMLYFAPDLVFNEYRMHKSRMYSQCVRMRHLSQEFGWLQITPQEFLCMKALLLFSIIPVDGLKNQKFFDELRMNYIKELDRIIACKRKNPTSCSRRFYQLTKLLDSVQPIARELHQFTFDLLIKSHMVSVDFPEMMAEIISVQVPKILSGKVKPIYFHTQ
# Protocol: Male rats were gonadectomized 20-22 hours before killing. The animals were killed by decapitation and exsanguination. Prostates were kept on ice immediately after removal from the animals. After trimming off the fats, prostates were minced and homogenized in 3 volumes of Tris-HCl buffer (0.02 M, pH 7.4 containing 1.5 mM EDTA and 10% glycerol). The homogenate was centrifuged at 10,000×g for 10 minutes, and the resulting supernatant was centrifuged again at 100,000×g for 60 minutes. The final supernatant contained the androgen-binding receptor.
# The mixture was brought up to 1.0 mL with Tris-HCl buffer used for homogenizing the tissue. The mixture was then incubated at 4° C. for 4 hr., with occasional shaking. At the end of incubation, the receptor-bound androgen was isolated by ammonium sulfate precipitation.
# A 70% saturated ammonium sulfate solution was prepared and its pH is adjusted to 7.4 with aqueous NH3. To 1.0 mL of the labeled cytosol, 1.0 mL of the 70% saturated ammonium sulfate was added dropwise with gentle mixing. The sample was let stand at 0-4° C. for 35 minutes, then centrifuged at 10,000×g for 20 minutes. The precipitate was resuspended in 1.0 mL of the above-mentioned Tris-HCl buffer containing 2 mg of bovine albumin. The androgen-receptor complex was immediately reprecipitated by addition of equal volumes of 70% saturated ammonium sulfate. The sample was allowed to stand at 0-4° C. for another 45 minutes, then centrifuged again as outlined above. The supernatant was decanted and the walls of the tubes thoroughly dried with filter paper. The final precipitated protein was resuspended in 1.0 mL of the same buffer and then transferred quantitatively into a counting vial containing 10 mL of Scintisol for counting.
# [3] = tested on: SEX ACCESSORY GLANDS AND TESTES OF 22-DAY OLD CASTRATED MALE RATS; assay: Inhibition of Prostate Growth in Castrated Male Rats (testosterone supplemented); type: in vivo, rat; settings: for In Vivo Percent Inhibition of Ventral Prostate Weight: castrated male rats given supplemental testosterone; for Final BW / Seminal Vesicle weight / Ventral Prostate weight: ten days, mean ± SE; for inhibition of prostate growth stimulated by exogenous testosterone: male castrated rats, in words
# Protocol: Male rats weighing 36 to 38 grams were castrated at the age of 22 days. […] The castrated rats were treated with the steroids once daily for ten consecutive days. On the tenth day following treatment, the rats were sacrificed and autopsied and final seminal vesicle weights and ventral prostate weights determined.
# [4] = tested on: 22 day old castrated male rats, seminal vesicle and ventral prostate; assay: standard Hershberger androgenic assay (agonist androgenic activity); type: in vivo, rat; settings: for dose response curves for androgenic activity: 22 day old castrated male rats; for agonist androgenic activity at the therapeutically effective antiandrogenic dose: by extrapolation to 30.0 mg, castrated male rat; for seminal vesicle weight (agonist androgenic activity) / ventral prostate weight (agonist androgenic activity): doses of 0.8 mg, 1.6 mg, and 3.2 mg, versus vehicle alone; for effect of drug dosage on prostate weight (FIG. 1): increasing dose, in words
# [5] = tested on: SEX ACCESSORY GLANDS AND TESTES OF INTACT SPRAGUE-DAWLEY MALE RATS; assay: Effect of Different Doses of Antiandrogen Compound III-1 on Sex Accessory Glands and Testes of Intact Sprague-Dawley Male Rats; type: in vivo, Sprague-Dawley rat; settings: for Body Weight / Epididymus weight / Seminal Vesicle weight / Ventral Prostate weight / Testes weight: N=4, mean ± SE; for Seminal Vesicle weight: P < .005; for Ventral Prostate weight: P < .01
# From the text: The foregoing procedures were used to evaluate the effect of antiandrogen compound III-1 on the sex accessory glands and tests of intact Sprague-Dawley male rats. As may be seen in the Table, […], indicating antagonism on the effect of the testosterone produced.
# ^a Administered subcutaneously once daily for 12 days
# [6] = dihydrotestosterone 25 nM alone, N=3
# [7] = compound 30.0 mg/day + testosterone propionate 0.6 mg/day
# [8] = 10 mg/day subcutaneously once daily for 12 days, statistically lower than control
# [9] = 30 mg/day subcutaneously once daily for 12 days, statistically lower than control, P < .001
# [10] = 30 mg/day subcutaneously once daily for 12 days, statistically lower than control
# [11] = III-1 2500 nM with dihydrotestosterone 25 nM, N=2
# [12] = testosterone propionate 0.6 mg/day alone, N=5
smiles,measurement,setting,value
"C[C@]12CCC(=O)C[C@@H]1CC[C@@H]1[C@@H]2CC[C@]2(C)[C@@H](O)CC[C@@H]12 [5α-Dihydrotestosterone, reference compound]","C3/28s × 100, percent of dihydrotestosterone",[1]; [6],100%
same,"C3 m-RNA, percent of dihydrotestosterone",[1]; [6],100%
same,C3 m-RNA,"[1]; dihydrotestosterone 25 nM alone, N=3, 30 disks/explant, printed spread ± 32,675","219,371"
same,C3/28s × 100,"[1]; dihydrotestosterone 25 nM alone, N=3, printed spread ± 26.9",148.9
"CCC[C@]1(O)CC[C@H]2[C@@H]3CCC4=CC(=O)CCC4=C3CC[C@@]21C [Compound II-1, 17α-Propylestra-4,9-dien-17β-ol-3-one]",Relative Binding Affinity,[2],5.7
same,Relative androgen receptor binding affinity,[2],5.7
same,affinity for the rat prostate androgen receptor compared with other known antiandrogens,[2],"higher affinity for the androgen rat prostate receptor than all of the other known antiandrogens except cyproterone acetate; also recorded: higher affinity for the rat ventral prostate androgen receptor than the steroidal antiandrogen zanoterone (WIN®49,596); also recorded: higher affinity to the androgen receptor than three other nonsteroidal antiandrogen receptor antagonists flutamide, which is available as an antiandrogen in the United States, nilutamide, developed by Roussel in France, and Casodex® (ICI 176,334)"
same,In Vivo Percent Inhibition of Ventral Prostate Weight,[3],18.8 ± 5.74%
same,Final BW,[3]; [7],88 ± 5 g
same,Seminal Vesicle weight,[3]; [7],28.2 ± 2.8 mg
same,Ventral Prostate weight,[3]; [7],45.3 ± 2.5 mg
same,inhibition of prostate growth stimulated by exogenous testosterone,[3],inhibit prostate growth stimulated by exogenous testosterone
same,dose response curves for androgenic activity,[4],Very flat dose response curves
same,agonist androgenic activity at the therapeutically effective antiandrogenic dose,[4],essentially devoid of agonist androgenic activity
same,seminal vesicle weight (agonist androgenic activity),[4],equal to the vehicle alone controls
same,ventral prostate weight (agonist androgenic activity),[4],equal to the vehicle alone controls
same,effect of drug dosage on prostate weight (FIG. 1),[4],"fairly steady prostate weight, even at higher doses"
"C[C@]12Cc3nonc3C[C@@H]1CC[C@@H]1[C@@H]2CC[C@@]2(C)[C@H]1CC[C@@]21CCCO1 [Compound III-1, 2',3'α-Tetrahydrofuran-2'-spiro-17-(5α-androstan(2,3-c]furazan]",Relative Binding Affinity,[2],5.8
same,Relative androgen receptor binding affinity,[2],5.8
same,affinity for the rat prostate androgen receptor compared with other known antiandrogens,[2],"higher affinity for the androgen rat prostate receptor than all of the other known antiandrogens except cyproterone acetate; also recorded: higher affinity for the rat ventral prostate androgen receptor than the steroidal antiandrogen zanoterone (WIN®49,596); also recorded: higher affinity to the androgen receptor than three other nonsteroidal antiandrogen receptor antagonists flutamide, which is available as an antiandrogen in the United States, nilutamide, developed by Roussel in France, and Casodex® (ICI 176,334)"
same,In Vivo Percent Inhibition of Ventral Prostate Weight,[3],32.2 ± 9.49%
same,Final BW,[3]; [7],89 ± 5 g
same,Seminal Vesicle weight,[3]; [7],22.5 ± 1.1 mg
same,Ventral Prostate weight,[3]; [7],39.5 ± 4.1 mg
same,inhibition of prostate growth stimulated by exogenous testosterone,[3],inhibit prostate growth stimulated by exogenous testosterone
same,Body Weight,"[5]; 10 mg/day subcutaneously once daily for 12 days, not statistically different from control",295 ± 5 g
same,Epididymus weight,"[5]; 10 mg/day subcutaneously once daily for 12 days, statistically lower than control, P < .001",524 ± 48 mg
same,Seminal Vesicle weight,[5]; [8],225 ± 40 mg
same,Ventral Prostate weight,[5]; [8],170 ± 13 mg
same,Testes weight,"[5]; 10 mg/day subcutaneously once daily for 12 days, statistically lower than control, P < .02",2.552 ± 111 g
same,Epididymus weight,[5]; [9],458 ± 39 mg
same,Testes weight,[5]; [9],1.942 ± .062 g
same,Seminal Vesicle weight,[5]; [10],242 ± 61 mg
same,Ventral Prostate weight,[5]; [10],148 ± 28 mg
same,Body Weight,"[5]; 30 mg/day subcutaneously once daily for 12 days, statistically lower than control, P < .05",277 ± 9 g
same,"magnitude of prostatic growth inhibition, dose dependence","[5]; Table 4, tentative conclusion",appears to be dose dependent
same,dose response curves for androgenic activity,[4],Very flat dose response curves
same,agonist androgenic activity at the therapeutically effective antiandrogenic dose,[4],essentially devoid of agonist androgenic activity
same,seminal vesicle weight (agonist androgenic activity),[4],equal to the vehicle alone controls
same,ventral prostate weight (agonist androgenic activity),[4],equal to the vehicle alone controls
same,effect of drug dosage on prostate weight (FIG. 1),[4],"fairly steady prostate weight, even at higher doses"
same,"C3/28s × 100, percent of dihydrotestosterone",[1]; [11],62%
same,"C3 m-RNA, percent of dihydrotestosterone",[1]; [11],43%
same,C3 m-RNA,"[1]; III-1 2500 nM with dihydrotestosterone 25 nM, N=2, 30 disks/explant, printed spread ± 1,603","95,130"
same,C3/28s × 100,"[1]; III-1 2500 nM with dihydrotestosterone 25 nM, N=2, printed spread ± 0.8",91.8
same,anti-androgenic activity,"[1]; III-1/dihydrotestosterone formulation, in words",marked anti-androgenic activity
"CC(=O)O[C@]1(C(C)=O)CC[C@H]2[C@@H]3C=C(Cl)C4=CC(=O)[C@@H]5C[C@@H]5[C@]4(C)[C@H]3CC[C@@]21C [Cyproterone acetate, reference compound]",In Vivo Percent Inhibition of Ventral Prostate Weight,[3],54.3 ± 8.34%
same,Seminal Vesicle weight,[3]; [7],9.8 ± 0.8 mg
same,Ventral Prostate weight,[3]; [7],30.0 ± 3.6 mg
"CC(C)(O)C(=O)Nc1ccc([N+](=O)[O-])c(C(F)(F)F)c1 [Hydroxyflutamide, reference compound]",Relative Binding Affinity,[2],2.6
same,Relative androgen receptor binding affinity,[2],2.6
"CCC(=O)O[C@H]1CC[C@H]2[C@@H]3CCC4=CC(=O)CC[C@]4(C)[C@H]3CC[C@]12C [Testosterone propionate, reference compound]",Final BW,[3]; [12],86 ± 4 g
same,Seminal Vesicle weight,[3]; [12],26.6 ± 34 mg
same,Ventral Prostate weight,[3]; [12],53.4 ± 5.8 mg
"C#C[C@]1(O)CC[C@H]2[C@@H]3CC[C@H]4Cc5nn(S(C)(=O)=O)cc5C[C@]4(C)[C@H]3CC[C@@]21C [Win 49,596, zanoterone, reference compound]",Relative Binding Affinity,[2],2.2
same,Relative androgen receptor binding affinity,[2],2.2
"C[C@]12CC[C@H]3[C@@H](CCC4=CC(=O)CC[C@@]43C)[C@@H]1CC[C@@H]2O [testosterone, reference compound]",effect of drug dosage on prostate weight (FIG. 1),[4],proportionate rise in prostate weight with increasing dose
